{"source": "patent US10800742B2", "about": "“Small molecule compounds targeting PBX1 transcriptional complex” (THE JOHNS HOPKINS UNIVERSITY, priority 2015, dated 2020)", "system": "SKOV3 carboplatin-resistant cancers", "test": "SKOV3CRLuc subcutaneous xenograft", "type": "in vivo, athymic nu/nu mice", "details": "platinum-resistant mouse tumor model", "protocol": "[MUT] and SKOV3CRLuc cells were injected subcutaneously into the athymic nu/nu mice (3×10^6, n=8 for each group). Parental SKOV3Luc cells were used as a negative control. Mice were intraperitoneally (i.p.) injected with [MUT] (red, 2.5 mg/kg/injection) or DMSO (red arrows) using a 3 days-on 4-days off protocol. Carboplatin (30 mg/kg/injection) was administrated i.p. every other day (green arrows). (B) Tumor volume was measured every other day for 25 to 40 days using a caliper, and luminescence activity was evaluated weekly. (C) Endpoint tumor volumes of [MUT], SKOV3Luc, and SKOV3CRLuc xenografts treated with the indicated drug or drug combination. Student's t-test. (D) Representative bioluminescence images of tumor burden in SKOV3CRLuc-innoculated mice treated with indicated drug. Images captured by the IVIS Spectrum at day 35. […] In vivo bioluminescence images were taken at the same time using the IVIS Spectrum. […] We tested the anti-tumor potency of [MUT]", "data": [{"smiles": "N.N.O=C([O-])C1(C(=O)[O-])CCC1.[Pt+2]", "note": "[carboplatin]", "values": [{"measurement": "anti-tumor potency (tumor growth)", "value": "relatively ineffective"}]}]}
